The record followed here is a melting point compilation (Tetko et al.; mined from patent text by program, amines drawn as free bases though some values may be those of a salt).

Molecules are shown by their SMILES.

A word on the melting point: it is the temperature of the solid-liquid transition. `CC12CCC(C(=O)N(CCCCN3CCN(c4ccccn4)CC3)C1=O)C2(C)C` (stereo not given) had a melting point of 96 to 97 °C.

Consider `Cc1cccc2c1nc(COc1ccc(Cl)cc1)n2CCC(C)C(=O)N1CCCC1` (racemic), for which the melting point lay in the range of 140 to 142 °C.

Take `NC(=O)c1cccc(OCCOC2CCNCC2)c1`: the melting point lay in the range of 144 to 146 °C.

As for `C#CCNC(=O)N1CC(c2cccc(C(F)(F)F)c2)C1`, the melting point turned out to be 121 °C.

`O=C(O)COc1cccc2c1Cc1sc(S(=O)(=O)CCCC(c3ccccc3)c3ccccc3)nc1-2`: the melting point lay within 97 to 101 °C.

The compound `CC(=O)OCc1cccc(Nc2nccc(-c3cnn(C(C)=O)c3-c3ccccc3)n2)c1` registered a melting point of 133 to 134 °C.

For `O=C1CC=Nc2cc3c(cc21)OCO3`, the melting point was 276 °C.

For the compound `CCCCCCCC[C@H]1C[C@H]1CCCCCCCC(=O)NC(Cc1ccccc1)Cc1ccccc1` (relative stereo), the melting point fell in the range of 40 to 45 °C.

`CSc1n[nH]c(=O)n1C`: the melting point turned out to be 97 °C.

In turn, `COC(=O)c1ccc(S(C)(=O)=O)c(OS(=O)(=O)C(F)(F)F)c1Cl` had a melting point of 69 °C.

On to `CN1CCN(c2cccc(-n3cnc4cc(C=O)ccc43)c2)CC1`, for which the melting point lay within 199 to 201 °C.

Compound `O=c1ccsn1CNc1ccc(Cl)c(Cl)c1` showed a melting point of 120 to 122 °C.

As for `COc1ccc(C#N)c(O)c1`, the melting point fell in the range of 169 to 171 °C.

The compound `COc1ccc(N2CCN(c3c(C)c(C)c4c(c3C)C(O)(c3cccc(C)c3)C(C)(C)O4)CC2)cc1` (stereo not given) came in with a melting point of 122 to 125 °C.

`Fc1cccc(Nc2cc(-c3ccnc(NC4CCOCC4)n3)ccn2)c1`: the melting point lay within 190 to 192 °C.

In turn, `CCOC1=Cc2ccccc2N(C)c2ccc(Br)cc21` came in with a melting point of 131 °C.

In turn, `CC(=O)c1cnn(O)c1-c1ccc(C(=O)O)cc1C` yielded a melting point above 250 °C.

The compound `CC(C)OC(=O)c1cc(-n2c(=O)c3c(n(C)c2=O)CCC3)c(F)cc1F` gave a melting point of 112 to 115 °C.

The compound `CC[C@@H](NC(=O)N1CC(=O)NCC(Cc2cc(Cl)ccc2OC)C1=O)C(=O)Nc1nnn[nH]1` (stereo not given in full) yielded a melting point of 141 to 142 °C.

In turn, `OCc1cccc(Nc2ncc3c(n2)-c2ccccc2[C@H](c2ccccc2F)C3)c1` registered a melting point of 158 to 159 °C.

Compound `N#Cc1cccc(CSc2nnc(-c3ccnc(NC(=O)CCc4ccccc4)c3)o2)c1` had a melting point of 153 to 154 °C.

On to `COc1ccc(-n2c(=O)c(Cl)nc3cccnc32)cc1`, for which the melting point was above 300 °C.

`CN1N=C(c2ccccc2)C(C)(C)NC1=O` had a melting point of 128 to 130 °C.

Consider `CCOC(=O)c1ccc(-c2n[nH]c3ccccc23)cc1`, for which the melting point was 133 to 135 °C.

`O=C(NC1N=C(c2ccccc2F)c2ccccc2NC1=O)c1ccccc1Cl` (racemic): the melting point amounted to 224 °C.

Consider `CC(C)Cn1c(=O)n(C)c(=O)c2c(CCC(=O)O)c(Cc3ccccc3C(F)(F)F)sc21`, for which the melting point is 165 to 167 °C.

Regarding `Cc1noc(NS(=O)(=O)c2ccccc2-c2cccs2)c1C`, the melting point fell in the range of 112 to 115 °C.

In turn, `Cc1cn(-c2cccc(O)c2)cn1` gave a melting point of 203 to 205 °C.

Turning to `CN(C)C=NC(=O)c1ccc(C(=O)N2Cc3cccn3Cc3ccccc32)cc1`, the melting point lay within 232 to 234 °C.

As to `CC12CCC(=O)NC1CCc1cc(-c3cccc([N+](=O)[O-])c3)ccc12` (single isomer, unassigned; (+)), the melting point fell in the range of 223 to 225 °C.

In the case of `NC(=S)c1ccccc1-c1ccccc1`, the melting point turned out to be 213 °C.

`O=C(Cn1c(-c2cccc(Cl)c2)nc2cccnc21)Nc1ccccn1` displayed a melting point of 165 to 166 °C.

In turn, `CC(CCCO)C1CCC2C3C(OCc4ccccc4)CC4CC(OC5CCCCO5)CCC4(C)C3CCC12C` (stereo not given) had a melting point of 52 to 55 °C.

`CSc1nc2nc(C)cc(-c3ccccc3)n2n1`: the melting point lay within 121 to 123 °C.

In turn, `Cc1noc(NS(=O)(=O)c2ccc(Nc3ccc(N)cc3N)cc2)c1C` yielded a melting point of 181 to 183 °C.
